Reference: EP4514928B1, “USE OF AN ANTIOXIDANT FOR REDUCING AND/OR PREVENTING THE TOXICITY OF A LUBRICANT COMPOSITION” (priority 2022, dated 2023)

Legend:
[1] = test system: Planaires adultes entier; conditions: adult planarians, 12 days, checks at 7 and 12 days, 0,22 mg/L - 22 mg/L; for Concentration à partir de laquelle une mortalité significative du planaire est observée: according to Zhang et al. 2019; for Concentration à partir de laquelle sont observés des troubles du comportement potentiellement liés à des troubles cognitifs du planaire: adhérence, vitesse de déplacement, repos, phototaxie, scrunching
Description: La méthodologie utilisée est la suivante Tous les composés sont fournis sous forme de poudres. Un volume approprié de DMSO 100 % (Sigma) a été ajouté, comme indiqué sur les tubes, pour obtenir une solution mère à 4,4 mg/ml (soit 200 fois plus concentrée que la concentration maximale de test).

[2] = test system: vie aquatique; conditions: long-term effects; cited from earlier work
[3] = cited from earlier work

| Molecule | Concentration à partir de laquelle une mortalité significative du planaire est observée [1] | Concentration à partir de laquelle sont observés des troubles du comportement potentiellement liés à des troubles cognitifs du planaire [1] | Toxicité (Informations ECHA - 2021): vie aquatique (écotoxique) [2] | Toxicité (Informations ECHA - 2021): toxicité aiguë ([3]; if swallowed) | Toxicité (Informations ECHA - 2021): dommages aux organes ([3]; prolonged or repeated exposure) |
| --- | --- | --- | --- | --- | --- |
| c1ccc(Nc2cccc3ccccc23)cc1 [compound 19, N-phénylnaphthalène-1-amine] | 6,9 mg/L | 2,2 -3,9 mg/L | Est très toxique pour la vie aquatique avec des effets à long terme (écotoxique) | est nocif s'il est avalé (toxicité aiguë) | peut causer des dommages aux organes par exposition prolongée ou répétée |
| CC(C)CC(C)Nc1ccc(Nc2ccccc2)cc1 (centres unmarked) [compound 22, N-(1,3-Diméthylbutyl)-N'-phényl-p-phénylènediamine] | 4,8 mg/L | 1,5 mg/L |  |  |  |
| Bis(nonylphényl)amine [Irganox® L67] |  |  | Est nocif pour la vie aquatique avec des effets à long terme (écotoxique) https://echa.europa.eu/fr/substance-information/-/substanceinfo/100.048.393 Evaluation en 2021 pour suspicion de Mutagénicité et PBT |  |  |
